In US9629843B2, “MTOR modulators and uses thereof” (The Regents of the University of California, priority 2008, dated 2017):
Entries after “also recorded” stand apart in the source; their conditions may differ.

Legend:
[1] = Pharmacokinetics of PP242; settings: in vivo
[2] = tested on: Akt, S6, 4EBP1 phosphorylation in tissues; test: In vivo effect on insulin signaling in fat, skeletal muscle and liver of mice; parameters: species or system C57BL/6 mice
[3] = Metabolic stability in microsome and cellular assays; assay type: in vitro ADME
[4] = tested on: ENaC-dependent Na+ current
[5] = tested on: PI3K signaling (PIP3 accumulation); test: PIP3 accumulation in p190 cells by confocal microscopy; assay type: cell-based; settings: 20 and 200 nM, 4 hr; FIG. 38C
4EBP1 binding to eIF-4E = test: m7GTP cap pull-down assay in L6 myotubes; assay type: cell-based; settings: insulin stimulated L6 myotubes; FIG. 10
[6] = tested on: S6K, S6, 4EBP1 phosphorylation in L6 myotubes; test: Phosphorylation of S6K, S6 and 4EBP1 in insulin stimulated L6 myotubes; assay type: cell-based
[7] = tested on: cap-dependent translation; test: Cap-dependent translation, m7GTP affinity, p190 cells; assay type: cell-based; settings: IM at 5 μM; FIG. 38D
[8] = tested on: mTORC2/AKT and mTORC1 signaling; test: mTORC2/AKT and mTORC1 signaling in p190 cells (western blot); assay type: cell-based; settings: FIGS. 38A-38B
Procedure: Western blots of p190 cells treated for 1.5 hr (a) or 3 hr (b) with indicated inhibitors are depicted in FIG. 38A and FIG. 38B. […] Clinically achievable concentrations of IM (1.0 μM) and DA (100 nM) were used for the combination treatments. See also FIGS. 40A-40B. Activation of PI3K was quantified in cells by signal pixel intensity and localized area of PIP3 accumulation by confocal microscopy, as depicted in FIG. 38C. […] A minimum of 250 cells was quantified from 2 separate images. […] Representative images depict PIP3 accumulation, nuclear content (DAPI stain) merged onto DIC images (13.5 μm scale bar). […] Autophagy (LC3 puncta accumulation), loss of proliferation (EdU accumulation), and distinct localization patterns of Foxo1 were assessed by confocal microscopy and representative cells were magnified for clarity. Cytoplasmic localization of Foxo1 corresponds to AKT activation, whereas nuclear accumulation signifies AKT inhibition.

p70S6K phosphorylation = p70S6K phosphorylation in mpkCCD cells; assay type: cell-based
[9] = tested on: ENaC-dependent Na+ current; test: ENaC-dependent Na+ transport in mpkCCD cells
[10] = Genetic toxicology (mini-Ames test)
Tolerability in rats = assay type: in vivo; settings: 10, 30 or 100 mg/kg, four times or twice daily, p.o.
[11] = tested on: Akt substrates (GSK3, TSC2, FoxO1/O3a) in L6 myotubes; test: Phosphorylation of Akt substrates in insulin stimulated L6 myotubes; assay type: cell-based; settings: FIG. 6
SGK1 phosphorylation = SGK1 phosphorylation in mpkCCD cells (mobility shift immunoblot); assay type: cell-based; settings: at a concentration of 0.3 μM
[12] = tested on: Akt phosphorylation (S473, T308) in MEFs; test: Akt phosphorylation in wild-type and SIN1−/− mouse embryonic fibroblasts (immunoblot); assay type: cell-based
Procedure: Wild-type and SIN1−/− primary mouse embryonic fibroblasts (MEFs) were grown in DMEM supplemented with about 10% FBS, glutamine and penicillin/streptomycin. MEFs were treated with TORKinib at about 2.5, 0.63, and 0.16 uM; rapamycin at approximately 15 nM; or PIK-90 at 625 nM for 30 minutes prior to insulin stimulation (e.g. 100 nM) for 10 minutes. Cells were lysed by scraping into ice cold lysis buffer (typically 300 mM NaCl, 50 mM Tris pH 7.5, 5 mM EDTA, 1% TRITON™ X-100, 0.02% NaN3, 20 nM microcystin, Sigma phosphatase inhibitor cocktails 1 and 2, Roche protease inhibitor cocktail and 2 mM PMSF). After contacting cells with lysis buffer, the solution was briefly sonicated. Lysates were cleared by centrifugation, resolved by SDS-PAGE, transferred to nitrocellulose and immunoblotted using antibodies to phospho-Akt S473, phospho-Akt T308, Akt, and β-actin (Cell Signaling Technologies).

Tolerability in mice = assay type: in vivo; settings: 10, 30 or 100 mg/kg, four times or twice daily, p.o.
SGK1 pS422 = test: HM (pS422) phosphorylation of flag-tagged SGK1 in HEK293 cells; assay type: cell-based, Human; settings: insulin, FIG. 28C
[13] = tested on: Akt-S473 and S6 phosphorylation in T cells; test: Phosflow of anti-CD3 stimulated murine splenocytes; assay type: cell-based
[14] = tested on: p70S6K, 4EBP1 phosphorylation in MEFs; test: Phosphorylation of 70S6K and 4EBP1 in mouse embryonic fibroblasts; assay type: cell-based; settings: wild-type and SIN1−/− MEFs; FIG. 11
Procedure: Wild-type and SIN1−/− primary mouse embryonic fibroblasts (MEFs) were grown in DMEM supplemented with about 10% FBS, glutamine and penicillin/streptomycin. MEFs were treated with TORKinib at approximately 2.5, 0.63, and 0.16 uM; rapamycin at about 15 nM; or PIK-90 at about 625 nM for approximately 30 minutes prior to insulin stimulation (e.g. 100 nM) for about 10 minutes. Cells were lysed by scraping into ice cold lysis buffer (generally: 300 mM NaCl, 50 mM Tris pH 7.5, 5 mM EDTA, 1% TRITON™ X-100, 0.02% NaN3, 20 nM microcystin, Sigma phosphatase inhibitor cocktails 1 and 2, Roche protease inhibitor cocktail and 2 mM PMSF). After contacting cells with lysis buffer, the solution was briefly sonicated. Lysates were cleared by centrifugation, resolved by SDS-PAGE, transferred to nitrocellulose and immunoblotted using antibodies to phospho-p70S6K T389, phospho-4EBP1 T37/46, phospho-4EBP1 S65, and β-actin (Cell Signaling Technologies).

[15] = tested on: myristolated-Akt transgenic thymocytes tumors; test: Akt murine allograft tumor model; assay type: in vivo, NOD/SCID mice
[16] = tested on: Akt phosphorylation (S473, T308) in L6 myotubes; test: Akt phosphorylation in insulin stimulated L6 myotubes (immunoblot); assay type: cell-based; settings: 100 nM insulin, FIG. 3
Procedure: L6 myoblasts were grown typically grown in DMEM supplemented with about 10% FBS, glutamine and penicillin/streptomycin. Confluent L6 myoblasts were differentiated into mytubes by culturing them for approximately 5 days in media containing about 2% FBS. L6 myotubes were maintained in media containing approximately 2% FBS until use.
In order to compare the effect of TORKinibs and PIK-90 on Akt phosphorylation, L6 myotubes were serum starved overnight and incubated with inhibitors or about 0.1% DMSO for approximately 30 minutes prior to stimulation with insulin (e.g. 100 nM) for about 10 minutes. Cells were lysed by scraping into ice cold lysis buffer (generally: 300 mM NaCl, 50 mM Tris pH 7.5, 5 mM EDTA, 1% TRITON™ X-100, 0.02% NaN3, 20 nM microcystin, Sigma phosphatase inhibitor cocktails 1 and 2, Roche protease inhibitor cocktail and 2 mM PMSF). After contacting cells with lysis buffer, the solution was briefly sonicated. Lysates were cleared by centrifugation, resolved by SDS-PAGE, transferred to nitrocellulose and immunoblotted using antibodies to phospho-Akt S473, phospho-Akt T308, Akt, and β-actin (Cell Signaling Technologies).

CC(C)n1nc(-c2cc3cc(O)ccc3[nH]2)c2c(N)ncnc21 [PP242]
clearance [1]: moderate
volume of distribution [1]: good
oral bioavailability (F %) ([1]; po): 30-70%
S6 phosphorylation ([2]; all tissues examined): equally inhibited
phosphorylation of 4EBP1 on T37/46 and S65 ([2]; all tissues examined): effective at blocking
phosphorylation of Akt at S473 and T308 ([2]; fat and liver, i.p., insulin stimulated mice): completely inhibit
phosphorylation of Akt ([2]; skeletal muscle): only partially able to inhibit
metabolic stability [3]: metabolically stable
toxic effect of prolonged treatment [4]: diminishes electrical resistance and causes morphological changes
PI3K signaling (PIP3 accumulation) [5]: had no significant effect
retention of 4EBP1 on eIF-4E (m7GTP pull-down) (4EBP1 binding to eIF-4E): caused a greater retention of 4EBP1
phosphorylation of 4EBP1 at S65 [6]: fully inhibits
phosphorylation of 4EBP1 at T70 [6]: neither rapamycin nor TORKinib affect
phosphorylation of 4EBP1 at T37/46 ([6]; listed as TORKinib): fully inhibits; also recorded: able to inhibit
cap-dependent translation [7]: inhibit cap-dependent translation
mTORC2/AKT and mTORC1 signaling in B-ALL [8]: completely inhibits mTORC2/AKT and mTORC1 signaling
p70S6K phosphorylation (p70S6K phosphorylation): eliminated the band detected by anti-phospho p70S6K antibody
T1/2 of effect on Na+ current ([9]; FIG. 29B): approximately 15 minutes
amiloride-sensitive Na+ current ([9]; at a concentration of 0.3 μM): completely abolished
aldosterone-induced Na+ current ([9]; mpkCCD cells): completely blocked aldosterone-induced current
genetic toxicology (mini-Ames test) [10]: clean profile
tolerability (Tolerability in rats): tolerated
phosphorylation of Akt and its substrates [11]: partially inhibited
phosphorylation of SGK1 (SGK1 phosphorylation): completely abolished
phosphorylation of Akt T308 ([12]; SIN1−/− MEFs): has no effect
phosphorylation of Akt at S473 and T308 ([12]; wild-type MEFs): inhibits the phosphorylation of Akt at both S473 and T308
tolerability (Tolerability in mice): tolerated
pS422-SGK1 band (SGK1 pS422): abrogated
anti-CD3 mediated phosphorylation of Akt-S473 [13]: inhibits
anti-CD3 mediated phosphorylation of S6 [13]: inhibits
phosphorylation of p70S6K and 4EBP1 [14]: more complete inhibitor of 4EBP1 phosphorylation under the conditions tested than rapamycin
tumor growth ([15]; PP242 100 mg/kg, rapamycin 5 mg/kg, gavage daily, 20 days): no tumor growth
body weight ([15]; after 20 days of treatment): maintained body weight
insulin stimulated phosphorylation of Akt at S473 and T308 [16]: inhibit insulin stimulated phosphorylation of Akt at S473
